We go through 51 molecules from patent US8080657B2, “Compounds of reverse turn mimetics and the use thereof” (Choongwae Pharma Corporation, priority 2008, dated 2011).

Where two headings read alike, the source gives them in different places.

For this assay, the system named is Wnt signaling. As to the kind of experiment: TopFlash reporter gene bioassay in SW480 cells. The assay is classed as cell-based. The following applies: read-out: RGA, IC50 (μM) TopF. (In general: In a reporter assay the amount or activity of a reporter protein is the signal.)
[1] abbreviates: Homo sapiens, SW480, TopFlash reporter gene assay, inhibition of Wnt signaling.
Setting [2] is: TopFlash reporter gene assay, inhibition of Wnt signaling.

`C=CCN1CC(=O)N2[C@@H](Cc3ccc(O)cc3)C(=O)N(Cc3cn(-c4cccc(F)c4)c4ccccc34)C[C@@H]2N1C(=O)NCc1ccccc1` [compound 166]: under setting [1], the IC50 was 17.5 ± 5.57 µM.

On to `C=CCN1CC(=O)N2[C@@H](Cc3ccc(O)cc3)C(=O)N(Cc3csc4c(NC(=O)OC)cccc34)C[C@@H]2N1C(=O)NCc1ccccc1` [compound 167], for which, under setting [1], the IC50 was 19.4 ± 3.4 µM. Same read-out and setting: to `C=CCN1CC(=O)N2[C@@H](Cc3ccc(O)cc3)C(=O)N(Cc3cccc(C(N)=O)n3)C[C@@H]2N1C(=O)NCc1ccccc1` [compound 168] belongs 2.01 ± 0.2 µM; to `C=CCOc1cccc(CN2C[C@H]3N(C(=O)CN(CC=C)N3C(=O)NCc3ccccc3)[C@@H](Cc3ccc(O)cc3)C2=O)c1` [compound 169], 2.01 ± 0.34 µM. On the same count and under the same terms, to `C=CCN1CC(=O)N2[C@@H](Cc3ccc(O)cc3)C(=O)N(Cc3ccccc3S(=O)(=O)c3ccc(Cl)cc3)C[C@@H]2N1C(=O)NCc1ccccc1` [compound 170] belongs 2.07 ± 0.43 µM. Regarding `C=CCN1CC(=O)N2[C@@H](Cc3ccc(O)cc3)C(=O)N(Cc3ccc(F)c4scnc34)C[C@@H]2N1C(=O)NCc1cccs1` [compound 171], the 50% inhibitory concentration (IC50) under setting [2] came out at 2.1 ± 0.34 µM. Consider `C=CCN1CC(=O)N2[C@@H](Cc3ccc(OP(=O)(O)O)cc3)C(=O)N(Cc3cccc(OCCN4CCOCC4)c3)C[C@@H]2N1C(=O)NCc1ccccc1` [compound 172], for which, for the setting “Homo sapiens, SW480”, the IC50 turned out to be 2.21 ± 0.35 µM. `C=CCN1CC(=O)N2[C@@H](Cc3ccc(O)cc3)C(=O)N(Cc3cccc(OC)c3OCCN3CCCCC3)C[C@@H]2N1C(=O)NCc1ccccc1` [compound 173]: the half-inhibitory concentration (IC50) under setting [1] was determined as 2.26 ± 0.16 µM.

Take `C=CCN1CC(=O)N2[C@@H](Cc3ccc(O)cc3)C(=O)N(Cc3ccc4ccn(S(=O)(=O)c5ccc(C)cc5)c4c3)C[C@@H]2N1C(=O)NCc1ccccc1` [compound 174]: under setting [1], the IC50 turned out to be 2.33 ± 0.64 µM. Still for that read-out and setting: to `C=CCN1CC(=O)N2[C@@H](Cc3ccc(O)cc3)C(=O)N(Cc3ccc(OC)c(OC)c3)C[C@@H]2N1C(=O)NCc1ccccc1` [compound 175] belongs 2.36 ± 0.57 µM; to `C=CCN1CC(=O)N2[C@@H](Cc3ccc(O)cc3)C(=O)N(Cc3ccnc(-c4ccccc4)n3)C[C@@H]2N1C(=O)NCc1ccccc1` [compound 176], 2.37 ± 0.22 µM; to `C=CCN1CC(=O)N2[C@@H](Cc3ccc(O)cc3)C(=O)N(Cc3cccc(Br)n3)C[C@@H]2N1C(=O)NCc1ccccc1` [compound 177], 2.37 ± 0.35 µM. Turning to `C=CCN1CC(=O)N2[C@@H](Cc3ccc(O)cc3)C(=O)N(Cc3ccc(F)c4scnc34)C[C@@H]2N1C(=O)NCCc1ccccc1` [compound 178], the IC50 under setting [2] amounted to 2.38 ± 0.75 µM. Turning to `C=CCN1CC(=O)N2C(CN(Cc3cccc(-c4ccc(SC)cc4)n3)C(=O)[C@@H]2Cc2ccc(O)cc2)N1C(=O)NCc1ccccc1` (stereo partly drawn) [compound 179], the IC50 under setting [1] came to 2.42 ± 0.32 µM. As to `C=CCN1CC(=O)N2[C@@H](Cc3ccc(O)cc3)C(=O)N(Cc3cccnc3-c3ccc(OC)cc3)C[C@@H]2N1C(=O)NCc1ccccc1` [compound 180], the half-maximal inhibitory concentration (IC50) under setting [1] was 2.42 ± 0.47 µM.

Consider `C=CCN1CC(=O)N2[C@@H](Cc3ccc(O)cc3)C(=O)N(Cc3cccc(NS(C)(=O)=O)c3)C[C@@H]2N1C(=O)NCc1ccccc1` [compound 181], for which the IC50 under setting [1] amounted to 2.47 ± 0.37 µM.

As for `C=CCN1CC(=O)N2[C@@H](Cc3ccc(O)cc3)C(=O)N(Cc3cccc(C(=O)NOC)c3)C[C@@H]2N1C(=O)NCc1ccccc1` [compound 182], the IC50 under setting [1] is 2.48 ± 0.22 µM. For the molecule `C=CCN1CC(=O)N2[C@@H](Cc3ccc(O)cc3)C(=O)N(Cc3cccc(C(=O)NC)c3)C[C@@H]2N1C(=O)NCc1ccccc1` [compound 183], under setting [1], the IC50 is 52.5 ± 0.32 µM. As for `C#Cc1ccc(CNC(=O)N2[C@H]3CN(Cc4cccc(OC)c4OC)C(=O)[C@H](Cc4ccc(O)cc4)N3C(=O)CN2CC=C)cc1` [compound 184], under setting [1], the IC50 turned out to be 2.56 ± 0.29 µM. With `C=CCN1CC(=O)N2[C@@H](Cc3ccc(O)cc3)C(=O)N(Cc3csc4ccc(NC=O)cc34)C[C@@H]2N1C(=O)NCc1ccccc1` [compound 185], the IC50 (Homo sapiens, SW480) was determined as 2.61 ± 0.19 µM.

For `C=CCN1CC(=O)N2[C@@H](Cc3ccc(O)cc3)C(=O)N(Cc3cccc(-c4ccccc4)n3)C[C@@H]2N1C(=O)NCc1ccccc1` [compound 186], the IC50 under setting [1] stood at 2.66 ± 0.74 µM. Take `C=CCN1CC(=O)N2[C@@H](Cc3ccc(O)cc3)C(=O)N(Cc3cccc4ccn(-c5ccccn5)c34)C[C@@H]2N1C(=O)NCc1ccccc1` [compound 187]: the IC50 under setting [1] was determined as 2.67 ± 0.28 µM. Take `C=CCN1CC(=O)N2[C@@H](Cc3ccc(O)cc3)C(=O)N(Cc3ccccc3S(C)(=O)=O)C[C@@H]2N1C(=O)NCc1ccccc1` [compound 188]: the half-inhibitory concentration (IC50) under setting [1] came to 2.67 ± 0.59 µM. For the molecule `C=CCN1CC(=O)N2[C@@H](Cc3ccc(O)cc3)C(=O)N(Cc3cccc(C(=O)N4CCCC4)c3)C[C@@H]2N1C(=O)NCc1ccccc1` [compound 189], the IC50 (Homo sapiens, SW480) turned out to be 2.68 ± 0.48 µM. Turning to `C=CCN1CC(=O)N2[C@@H](Cc3ccc(O)cc3)C(=O)N(Cc3cccc(-c4cccc(C#N)c4)n3)C[C@@H]2N1C(=O)NCc1ccccc1` [compound 191], the IC50 under setting [1] turned out to be 2.81 ± 0.52 µM. In the case of `C=CCN1CC(=O)N2[C@@H](CC3=CC(=O)NC3=O)C(=O)N(Cc3cccc4scnc34)C[C@@H]2N1C(=O)NCc1ccccc1` [compound 192], the IC50 under setting [1] was determined as 2.85 ± 0.79 µM.

Take `C=CCN1CC(=O)N2[C@@H](Cc3ccc(O)cc3)C(=O)N(Cc3ccc(OC)c(F)c3)C[C@@H]2N1C(=O)NCc1ccccc1` [compound 193]: under setting [1], the IC50 turned out to be 2.86 ± 0.49 µM. With `C=CCN1CC(=O)N2[C@@H](Cc3ccc(O)cc3)C(=O)N(Cc3cccc(C(=O)OCC)n3)C[C@@H]2N1C(=O)NCc1ccccc1` [compound 194], the IC50 under setting [1] amounted to 2.89 ± 0.5 µM. In the case of `C=CCN1CC(=O)N2[C@@H](Cc3ccc(O)cc3)C(=O)N(Cc3csc4ccc(NC(N)=O)cc34)C[C@@H]2N1C(=O)NCc1ccccc1` [compound 195], the IC50 under setting [1] stood at 20.9 ± 3.94 µM.

As for `C=CCN1CC(=O)N2[C@@H](Cc3ccc(O)cc3C)C(=O)N(Cc3ccc(F)cc3F)C[C@@H]2N1C(=O)NCc1ccccc1` [compound 196], the 50% inhibitory concentration (IC50) under setting [1] worked out at 21.2 ± 2.15 µM. Same read-out and setting: the figure for `C=CCN1CC(=O)N2[C@@H](Cc3ccc(O)cc3)C(=O)N(Cc3cccc(C(=O)N(C)C)n3)C[C@@H]2N1C(=O)NCc1ccccc1` [compound 197] is 21.8 ± 3.69 µM; for `C=CCN1CC(=O)N2[C@@H](Cc3ccc(O)cc3)C(=O)N(Cc3cccnc3-c3cccnc3)C[C@@H]2N1C(=O)NCc1ccccc1` [compound 198] it is 22.2 ± 5.69 µM; for `C=CCN1CC(=O)N2[C@@H](Cc3ccc(O)cc3)C(=O)N(Cc3cccnc3N3CCC(N4CCCC4)CC3)C[C@@H]2N1C(=O)NCc1ccccc1` [compound 199] it is 25.9 ± 3.38 µM. For `C=CCN1CC(=O)N2[C@@H](Cc3ccc(O)cc3)C(=O)N(Cc3csc4ccc(N(Cc5ccccc5)Cc5ccccc5)cc34)C[C@@H]2N1C(=O)NCc1ccccc1` [compound 200], the IC50 under setting [1] is 25.9 ± 4.72 µM.

Consider `C=CCN1CC(=O)N2[C@@H](Cc3ccc(O)cc3)C(=O)N(Cc3csc4cc(NC(N)=O)ccc34)C[C@@H]2N1C(=O)NCc1ccccc1` [compound 201], for which the IC50 under setting [1] was found to be 26.1 ± 7.1 µM. Take `C=CCN1CC(=O)N2[C@@H](Cc3ccc(O)cc3)C(=O)N(Cc3csc4cc(NS(N)(=O)=O)ccc34)C[C@@H]2N1C(=O)NCc1ccccc1` [compound 202]: the IC50 under setting [1] was found to be 28.8 ± 5.69 µM. Consider `C=CCN1CC(=O)N2[C@@H](Cc3ccc(O)cc3)C(=O)N(Cc3cccc4ccn(Cc5cccc([N+](=O)[O-])c5)c34)C[C@@H]2N1C(=O)NCc1ccccc1` [compound 204], for which the IC50 under setting [1] is 3.13 ± 0.44 µM. On to `C=CCN1CC(=O)N2[C@@H](Cc3ccc(O)cc3)C(=O)N(Cc3cccc4cc[nH]c34)C[C@@H]2N1C(=O)NCc1ccccn1` [compound 205], for which the IC50 (Homo sapiens, SW480) was determined as 3.14 ± 0.68 µM. Take `C=CCN1CC(=O)N2[C@@H](Cc3ccc(O)cc3)C(=O)N(Cc3csc4c(N)cccc34)C[C@@H]2N1C(=O)NCc1ccccc1` [compound 206]: under setting [1], the IC50 is 3.18 ± 0.75 µM. Turning to `C=CCN1CC(=O)N2[C@@H](Cc3ccc(O)cc3)C(=O)N(Cc3cccc(C(N)=O)c3)C[C@@H]2N1C(=O)NCc1ccccc1` [compound 207], under setting [1], the IC50 was 3.25 ± 0.41 µM. Turning to `C=CCN1CC(=O)N2[C@@H](Cc3ccc(O)cc3)C(=O)N(Cc3ccc(OC)c(-c4cccnc4)c3)C[C@@H]2N1C(=O)NCc1ccccc1` [compound 208], the IC50 under setting [1] stood at 3.27 ± 0.8 µM. As for `C=CCN1CC(=O)N2[C@@H](Cc3ccc(O)cc3)C(=O)N(Cc3cccc(-c4ncc[nH]4)c3)C[C@@H]2N1C(=O)NCc1ccccc1` [compound 209], the IC50 under setting [1] came to 3.3 ± 0.58 µM. Regarding `C=CCN1CC(=O)N2[C@@H](Cc3ccc(O)cc3)C(=O)N(Cc3cccc(C(=O)NNC(=O)OC(C)(C)C)c3)C[C@@H]2N1C(=O)NCc1ccccc1` [compound 210], under setting [1], the IC50 stood at 3.57 ± 0.89 µM. With `C=CCN1CC(=O)N2[C@@H](Cc3ccc(O)cc3)C(=O)N(Cc3cn(S(=O)(=O)c4ccc(C)cc4)c4ccccc34)C[C@@H]2N1C(=O)NCc1ccccc1` [compound 211], under setting [1], the IC50 is 3.61 ± 0.47 µM. Consider `C=CCN1CC(=O)N2[C@@H](Cc3ccc(O)cc3)C(=O)N(Cc3cccc(C(=O)N4CCOCC4)c3)C[C@@H]2N1C(=O)NCc1ccccc1` [compound 212], for which the IC50 under setting [1] came to 3.62 ± 0.63 µM.

`C=CCN1CC(=O)N2[C@@H](Cc3ccc(O)cc3)C(=O)N(Cc3cccc4ccn(Cc5cccc(N)c5)c34)C[C@@H]2N1C(=O)NCc1ccccc1` [compound 213]: the IC50 under setting [1] amounted to 3.62 ± 0.65 µM. Take `C=CCN1CC(=O)N2[C@@H](Cc3ccc(O)cc3)C(=O)N(Cc3ccc(OCCCC)cc3)C[C@@H]2N1C(=O)NCc1ccccc1` [compound 214]: the IC50 under setting [1] was determined as 3.72 ± 0.47 µM. On to `C=CCN1CC(=O)N2[C@@H](Cc3ccc(OP(=O)(O)O)cc3)C(=O)N(Cc3ccc(OC)cc3F)C[C@@H]2N1C(=O)NCc1ccccc1` [compound 216], for which the IC50 (Homo sapiens, SW480) is 3.8 ± 1.1 µM. In the case of `C=CCN1CC(=O)N2[C@@H](Cc3ccc(O)cc3)C(=O)N(Cc3cccc(-c4cccnc4)n3)C[C@@H]2N1C(=O)NCc1ccccc1` [compound 217], under setting [1], the IC50 came out at 3.87 ± 0.45 µM. For `C=CCN1CC(=O)N2[C@@H](Cc3ccc(O)cc3)C(=O)N(Cc3cccc(-c4cccc(OC)c4)n3)C[C@@H]2N1C(=O)NCc1ccccc1` [compound 218], the IC50 under setting [1] worked out at 3.96 ± 0.93 µM.

Take `C=CCN1CC(=O)N2[C@@H](Cc3ccc(O)cc3)C(=O)N(Cc3ccccc3Sc3ccc(Cl)cc3)C[C@@H]2N1C(=O)NCc1ccccc1` [compound 219]: the IC50 under setting [1] worked out at 3.97 ± 0.57 µM.

What is called IC50 is the midpoint of a concentration-inhibition curve.
